How the values were obtained:
[1] = test system: E-selectin; experiment: Inhibition of E-selectin IgG chimera binding to sLex on microtiter wells; settings: FIG. 6; E-selectin 50 ng/ml; sennoside B from 2 mM, serial 1/2 dilutions; sLex 25 pm/well
Description: (§1) The capacity of the multivalent anthraquinone derivative, Sennoside B, to inhibit selectin binding to sLex was tested essentially as described by Foxall, C., et al J. Cell Biol., vol. 117, pages 895-902 (1992) using selectin IgG chimeras.
(§2) The following assay procedure was used. sLex at 25 pm/well was evaporated onto microtiter wells in MeOH and H2 O overnight. The plates were washed with H2 O and blocked with 5% BSA in PBS with 1 mM Ca for 1 hour. L-selectin was diluted to 35 ng/ml in 1% BSA PBS with 1 mM Ca and 1:1500 biotinylated goat F(ab') anti-human IgG Fc (CalTag, corp.) and streptavidin-alkaline phosphatase. E-selectin at 50 ng/ml and P-selectin at 750 ng/ml were similarly diluted with 1:1000 dilutions of biotinylated goat F(ab') anti-human IgG Fc and streptavidin-alkaline phosphatase. These were allowed to complex for 15 minutes at 37° C.
(§3) Part of each selectin solution was made 2 mM with sennoside B (obtained from Pfaltz and Bauer, Inc., Waterbury, Conn.) The most concentrated solutions were diluted with the selectin solution to yield 3 solutions each 1/2 as concentrated as the previous. The solutions with selectin and inhibitor were incubated for 45 minutes at 37° C. […]
(§4) Binding is expressed as "% of No Addition Control." That is, in some wells, no inhibitor was present, and the binding in these wells represents the maximum (100%) binding.

[2] = test system: L-selectin; experiment: Inhibition of L-selectin IgG chimera binding to sLex on microtiter wells; settings: FIG. 7; L-selectin 35 ng/ml; sennoside B from 2 mM, serial 1/2 dilutions; sLex 25 pm/well
Description: as §1, §2, §3, §4

[3] = test system: P-selectin; experiment: Inhibition of P-selectin IgG chimera binding to sLex on microtiter wells; settings: FIG. 8; P-selectin 750 ng/ml; sennoside B from 2 mM, serial 1/2 dilutions; sLex 25 pm/well
Description: as §1, §2, §3, §4

## O=C(O)c1cc(O)c2c(c1)[C@@H]([C@H]1c3cc(C(=O)O)cc(O)c3C(=O)c3c(O[C@@H]4O[C@H](CO)[C@@H](O)[C@H](O)[C@H]4O)cccc31)c1cccc(O[C@@H]3O[C@H](CO)[C@@H](O)[C@H](O)[C@H]3O)c1C2=O [Sennoside B]
[1]
  E-selectin binding to sLex (expressed as % of No Addition Control): inhibited
[2]
  L-selectin binding to sLex (expressed as % of No Addition Control): inhibited
[3]
  P-selectin binding to sLex (expressed as % of No Addition Control): most inhibited
